In the supplement of paper PMC11208160:

test: recombinant barcode read abundance after kanamycin selection (control-corrected) (log10(CPM+1)); higher = more efficient recombination; sequences stand for … in AGTGCAGAGAAAATCGGCCAGTTTTCTCTGCCTGCAGTCCGCATGCCGT…AGATTTATGCAGCGGACTGCCTTTCTCCCAAAGTGATAAACCGGACAGTATCATGGACCGGTTTTCCCGGTAATCCGTATTTGCAAGGTTGGTTTCACT; site = the 11-nt target
How it was run: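 Two replicates per condition were plated: chloramphenicol/ampicillin LB agar for the control, and chloramphenicol/ampicillin/kanamycin with 0.1 mM IPTG for selection. The pooled E. coli screen behind them paired targets with IS621 bridge RNA target-binding loops. Recombination efficiency is expressed from averaged, control-corrected barcode counts per million at recombinant junctions, as log10(CPM+1).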
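Also: IS621 recombinase and bridge RNA in Escherichia coli cells.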

| Sequence | recombinant barcode read abundance (log10) |
| --- | --- |
| CGAGCTCCTTGGGTTCTAACCTGTTGCGT (site CGAGCTCCTAC) | 2.04 |
| CGAGCTCCTTGGGTTCTAACCTGTTGCGT (site CGAGCTCCTAG) | 0.813 |
| CGAGCTCCTTGGGTTCTAACCTGTTGCGT (site CGAGCTCCTAT) | 0.766 |
| CGAGGACCTTGGGTTCTAACCTGTTGCCT (site CCAGGACCTAG) | 0.729 |
| CGAGGACCTTGGGTTCTAACCTGTTGCCT (site CGAGGACCTAG) | 2.3 |
| CGAGGGACTTGGGTTCTAACCTGTTGCCT (site CGAGGGACTAG) | 1.81 |
| CGAGGGACTTGGGTTCTAACCTGTTGCCT (site CGAGGGCCTAG) | 0.0632 |
| CGAGGGACTTGGGTTCTAACCTGTTGCCT (site CGAGGGGCTAG) | 0.807 |
| CGAGGGACTTGGGTTCTAACCTGTTGCCT (site CGAGGGTCTAG) | 0.056 |
| CGAGGGCCTTGGGTTCTAACCTGTTGCCT (site CGAGGGACTAG) | 0.049 |
| CGAGGGCCTTGGGTTCTAACCTGTTGCCT (site CGAGGGCCTAG) | 0.603 |
| CGAGGGCCTTGGGTTCTAACCTGTTGCCT (site CGAGGGGCTAG) | 0.0635 |
| CGAGGGCCTTGGGTTCTAACCTGTTGCCT (site CGAGGGTCTAG) | 0.345 |
| CGAGTGACTTGGGTTCTAACCTGTTGCAG (site ATTAACTCTAG) | 0.0869 |
| CGAGTGACTTGGGTTCTAACCTGTTGCAG (site CGAGTGACTCT) | 1.32 |
| CGATGGACTTGGGTTCTAACCTGTTGCCG (site CAATGGGCTCG) | 0.102 |
| CGATGGACTTGGGTTCTAACCTGTTGCCG (site CGATGGACTCG) | 0.956 |
| CGATGTCCTTGGGTTCTAACCTGTTGCCT (site CGATGTCCTAG) | 0.864 |
| CGATGTCCTTGGGTTCTAACCTGTTGCCT (site CGATGTGCTAG) | 0.039 |
| CGATTACCTTGGGTTCTAACCTGTTGCCT (site CGATTAACTAG) | 0.0753 |
| CGATTACCTTGGGTTCTAACCTGTTGCCT (site CGATTACCTAG) | 0.264 |
| CGATTACCTTGGGTTCTAACCTGTTGCCT (site CGATTAGCTAG) | 0.38 |

| Sequence | recombinant barcode read abundance (log10) |
| --- | --- |
| CGATTACCTTGGGTTCTAACCTGTTGCCT (site CGATTATCTAG) | 0.11 |
| CGATTAGCTTGGGTTCTAACCTGTTGCCT (site CGATTAACTAG) | 0.161 |
| CGATTAGCTTGGGTTCTAACCTGTTGCCT (site CGATTACCTAG) | 0.038 |
| CGATTAGCTTGGGTTCTAACCTGTTGCCT (site CGATTAGCTAG) | 0.169 |
| CGATTAGCTTGGGTTCTAACCTGTTGCCT (site CGATTATCTAG) | 0.186 |
| CGCACGTCTTGGGTTCTAACCTGTTGCTT (site CACAAGTCTAA) | 0.185 |
| CGCACGTCTTGGGTTCTAACCTGTTGCTT (site CGCACGTCTAA) | 0.0911 |
| CGCCACACTTGGGTTCTAACCTGTTGCCT (site CGACACACTAG) | 0.426 |
| CGCCACACTTGGGTTCTAACCTGTTGCCT (site CGCCACACTAG) | 0.296 |
| CGCCACACTTGGGTTCTAACCTGTTGCCT (site CGGCACACTAG) | 0.689 |
| CGCCACACTTGGGTTCTAACCTGTTGCCT (site CGTCACACTAG) | 1.22 |
| CGCCGAACTTGGGTTCTAACCTGTTGCCT (site AGCCGAACTAG) | 0.0619 |
| CGCCGAACTTGGGTTCTAACCTGTTGCCT (site CGCCGAACTAG) | 0.0225 |
| CGCCGAACTTGGGTTCTAACCTGTTGCCT (site GGCCGAACTAG) | 0.339 |
| CGCCGAACTTGGGTTCTAACCTGTTGCCT (site TGCCGAACTAG) | 0.0386 |
| CGCCTGCCTTGGGTTCTAACCTGTTGCCT (site CGCCAGCCTAG) | 0.119 |
| CGCCTGCCTTGGGTTCTAACCTGTTGCCT (site CGCCTGCCTAG) | 0.113 |
| CGCCTTCCTTGGGTTCTAACCTGTTGCAT (site CGCCATCCTAT) | 0.121 |
| CGCCTTCCTTGGGTTCTAACCTGTTGCAT (site CGCCCTCCTAT) | 0.157 |
| CGCCTTCCTTGGGTTCTAACCTGTTGCAT (site CGCCGTCCTAT) | 0.0857 |
| CGCCTTCCTTGGGTTCTAACCTGTTGCAT (site CGCCTTCCTAT) | 0.0767 |
| CGCGCAGCTTGGGTTCTAACCTGTTGCCT (site CGAGCAGCTAG) | 0.382 |

| Sequence | recombinant barcode read abundance (log10) |
| --- | --- |
| CGCGCAGCTTGGGTTCTAACCTGTTGCCT (site CGCGCAGCTAG) | 0.267 |
| CGCGCAGCTTGGGTTCTAACCTGTTGCCT (site CGGGCAGCTAG) | 0.135 |
| CGCGCAGCTTGGGTTCTAACCTGTTGCCT (site CGTGCAGCTAG) | 0.416 |
| CGCGTAACTTGGGTTCTAACCTGTTGCCT (site CGCGCAACTAG) | 0.112 |
| CGCGTAACTTGGGTTCTAACCTGTTGCCT (site CGCGTAACTAG) | 0.123 |
| CGCTCCTCTTGGGTTCTAACCTGTTGCAT (site CGCTCCTCTAT) | 0 |
| CGCTCCTCTTGGGTTCTAACCTGTTGCAT (site GCTCGACCTCA) | 0.177 |
| CGCTCCTCTTGGGTTCTAACCTGTTGCCT (site AGCTCCTCTAG) | 0.0659 |
| CGCTCCTCTTGGGTTCTAACCTGTTGCCT (site CGCTCCTCTAG) | 0.027 |
| CGCTCCTCTTGGGTTCTAACCTGTTGCCT (site GGCTCCTCTAG) | 0.0456 |
| CGCTCCTCTTGGGTTCTAACCTGTTGCCT (site TGCTCCTCTAG) | 0.103 |
| CGCTGACCTTGGGTTCTAACCTGTTGCCT (site CGCTGACCTAG) | 0.0666 |
| CGCTGACCTTGGGTTCTAACCTGTTGCCT (site GCAACCTCTTA) | 0.11 |
| CGCTGATCTTGGGTTCTAACCTGTTGCCT (site AGCTGATCTAG) | 0.0494 |
| CGCTGATCTTGGGTTCTAACCTGTTGCCT (site CGCTGATCTAG) | 0.0169 |
| CGCTGATCTTGGGTTCTAACCTGTTGCCT (site GGCTGATCTAG) | 0.14 |
| CGCTGATCTTGGGTTCTAACCTGTTGCCT (site TGCTGATCTAG) | 0.0802 |
| CGCTGCCCTTGGGTTCTAACCTGTTGCTT (site CGCTGACCTAA) | 0.102 |
| CGCTGCCCTTGGGTTCTAACCTGTTGCTT (site CGCTGCCCTAA) | 0.113 |
| CGCTGCCCTTGGGTTCTAACCTGTTGCTT (site CGCTGGCCTAA) | 0.0609 |
| CGCTGCCCTTGGGTTCTAACCTGTTGCTT (site CGCTGTCCTAA) | 0.512 |
| CGCTGGACTTGGGTTCTAACCTGTTGCCT (site CGCTAGACTAG) | 0.0452 |
